Columns and labels:
[1] = test system: WT and ATG4B KO HCT116; assay: Apoptosis detection by cleaved PARP western blot; assay type: cell-based; settings: low or high concentrations of Ebselen; STS 2 μM; 6 h
[2] = test system: HeLa cell line; assay: Autophagy flux by LC3B-II western blot in HeLa; assay type: cell-based; settings: Torin 1 2 μM, CQ 40 μM
Method: Since ATG4B is a key protein in autophagy, the experiment on the effect of Ebselen on autophagy flux was worth proposing. First of all, we determined the most classic index LC3B for autophagy flux detection in HeLa cell line. […] A, B HeLa cells were treated with Torin 1 (2 μM) or CQ (40 μM) and detected by western blot. C, D SW620 cells were transduced with sgCon and sgATG4B lentiviruses, respectively. Then cells were treated with CQ (40 μM) and detected by western blot. E, F HCT116 were treated with Ebselen (5 and 10 μM) or CQ (40 μM) and subjected to western blot. G, H SW620 were treated with Ebselen (10 μM) or CQ (40 μM) and western blotting was carried out to detect the protein levels. I, J Immunofluorescence analysis of endogenous LC3B in HCT116 treated with Ebselen (10 μM) or CQ (40 μM). Dots numbers for LC3B were derived from counting at least 20 cells and 5 fields from three independent replicated experiments. Bar = 10 μm. K HCT116 cells were treated with 2 μM Torin 1 in the presence or absence of 10 μM Ebselen for 12 h, then the level ratio of long-lived proteins was measured by flow cytometry

[3] = test system: CASP3; parameters: method as in PMID 23632366, PMID 25468037; settings: cited from earlier work

With `CN[C@@H]1C[C@H]2O[C@@](C)([C@@H]1OC)n1c3ccccc3c3c4c(c5c6ccccc6n2c5c31)C(=O)NC4` [Staurosporine (STS), Staurosporine] the “apoptosis (cleaved PARP)” value [1] was “generation of apoptosis”.
For `CCC(=O)N1CCN(c2ccc(-n3c(=O)ccc4cnc5ccc(-c6cnc7ccccc7c6)cc5c43)cc2C(F)(F)F)CC1` [Torin 1], the “effect on autophagy (LC3B-II accumulation with CQ)” value [2] was “autophagy inducer”.
For `O=c1c2ccccc2sn1-c1ccccc1` [Ebsulfur], the “inhibition on CASP3” value [3] is listed as “clear inhibition”.

— PMC9767854, “Discovery and mechanism studies of a novel ATG4B inhibitor Ebselen by drug repurposing and its anti-colorectal cancer effects in mice” (Cell & Bioscience, 2022)
